According to the NIST ThermoML archive (doi:10.1021/acs.jced.7b00002):
± gives the expanded uncertainty stated by the source.

Experiment: xn = mol fraction of the nth substance listed
Conditions: 97.6 kPa, Liquid; for viscosity: Capillary tube (Ostwald / Ubbelohde) method; for mass density: Vibrating tube method

CCCCCCCC[n+]1ccn(C)c1.[Cl-] [1-methyl-3-octylimidazolium chloride] + CC(=O)N(C)C
Conditions | mass density [kg/m3] | viscosity [mPa·s]
303.15 K, x1 = 0.139 | 958.09 ± 2 | 3.63
303.15 K, x1 = 0.273 | 975.02 ± 2.1 | 14.75
303.15 K, x1 = 0.361 | 981.93 ± 2.1 | 32.45
303.15 K, x1 = 0.468 | 988.64 ± 2.1 | 92.29
303.15 K, x1 = 0.602 | 994.87 ± 2.1 | 288.58
303.15 K, x1 = 0.786 | 1001.37 ± 2.1 | 1049.5
303.15 K, x1 = 0.877 | 1003.75 ± 2.1 | 1865.4
303.15 K, x1 = 1 | 1006.2 ± 2.2 | 7339.7
308.15 K, x1 = 0.139 | 954.07 ± 2 | 3.26
308.15 K, x1 = 0.273 | 971.38 ± 2.1 | 12.52
308.15 K, x1 = 0.361 | 978.45 ± 2.1 | 26.51
308.15 K, x1 = 0.468 | 985.3 ± 2.1 | 70.68
308.15 K, x1 = 0.602 | 991.72 ± 2.1 | 210.24
308.15 K, x1 = 0.786 | 998.36 ± 2.1 | 714.83
308.15 K, x1 = 0.877 | 1000.8 ± 2.1 | 1255
308.15 K, x1 = 1 | 1003.33 ± 2.1 | 4272.9
313.15 K, x1 = 0.139 | 950.12 ± 2 | 2.94
313.15 K, x1 = 0.273 | 967.74 ± 2.1 | 10.65
313.15 K, x1 = 0.361 | 974.97 ± 2.1 | 21.93
313.15 K, x1 = 0.468 | 981.99 ± 2.1 | 55.22
313.15 K, x1 = 0.602 | 988.57 ± 2.1 | 156.62
313.15 K, x1 = 0.786 | 995.34 ± 2.1 | 502.24
313.15 K, x1 = 0.877 | 997.86 ± 2.1 | 853.26
313.15 K, x1 = 1 | 1000.48 ± 2.1 | 2766.9
318.15 K, x1 = 0.139 | 946.26 ± 2 | 2.65
318.15 K, x1 = 0.273 | 964.11 ± 2.1 | 9.2
318.15 K, x1 = 0.361 | 971.5 ± 2.1 | 18.32
318.15 K, x1 = 0.468 | 978.68 ± 2.1 | 44.2
318.15 K, x1 = 0.602 | 985.42 ± 2.1 | 119.22
318.15 K, x1 = 0.786 | 992.37 ± 2.1 | 358.94
318.15 K, x1 = 0.877 | 994.92 ± 2.1 | 594.67
318.15 K, x1 = 1 | 997.64 ± 2.1 | 1788.6
323.15 K, x1 = 0.139 | 942.47 ± 2 | 2.42
323.15 K, x1 = 0.273 | 960.49 ± 2 | 8.02
323.15 K, x1 = 0.361 | 968.04 ± 2.1 | 15.51
323.15 K, x1 = 0.468 | 975.38 ± 2.1 | 35.89
323.15 K, x1 = 0.602 | 982.29 ± 2.1 | 92.49
323.15 K, x1 = 0.786 | 989.43 ± 2.1 | 263.25
323.15 K, x1 = 0.877 | 992 ± 2.1 | 425.36
323.15 K, x1 = 1 | 994.82 ± 2.1 | 1198.7
328.15 K, x1 = 0.139 | 938.72 ± 2 | 2.21
328.15 K, x1 = 0.273 | 956.87 ± 2 | 7.04
328.15 K, x1 = 0.361 | 964.59 ± 2.1 | 13.24
328.15 K, x1 = 0.468 | 972.09 ± 2.1 | 29.51
328.15 K, x1 = 0.602 | 979.16 ± 2.1 | 72.76
328.15 K, x1 = 0.786 | 986.49 ± 2.1 | 198.27
328.15 K, x1 = 0.877 | 989.12 ± 2.1 | 310.37
328.15 K, x1 = 1 | 992 ± 2.1 | 828.3
333.15 K, x1 = 0.139 | 934.99 ± 2 | 2.04
333.15 K, x1 = 0.273 | 953.26 ± 2 | 6.22
333.15 K, x1 = 0.361 | 961.14 ± 2 | 11.44
333.15 K, x1 = 0.468 | 968.81 ± 2.1 | 24.7
333.15 K, x1 = 0.602 | 976.05 ± 2.1 | 58.34
333.15 K, x1 = 0.786 | 983.55 ± 2.1 | 150.45
333.15 K, x1 = 0.877 | 986.24 ± 2.1 | 231.3
333.15 K, x1 = 1 | 989.17 ± 2.1 | 588.69
338.15 K, x1 = 0.139 | 931.23 ± 2 | 1.88
338.15 K, x1 = 0.273 | 949.65 ± 2 | 5.53
338.15 K, x1 = 0.361 | 957.71 ± 2 | 9.98
338.15 K, x1 = 0.468 | 965.54 ± 2.1 | 20.81
338.15 K, x1 = 0.602 | 972.96 ± 2.1 | 47.46
338.15 K, x1 = 0.786 | 980.62 ± 2.1 | 116.53
338.15 K, x1 = 0.877 | 983.37 ± 2.1 | 176.46
338.15 K, x1 = 1 | 986.38 ± 2.1 | 426.28
343.15 K, x1 = 0.139 | 927.34 ± 2 | 1.74
343.15 K, x1 = 0.273 | 946.05 ± 2 | 4.96
343.15 K, x1 = 0.361 | 954.28 ± 2 | 8.73
343.15 K, x1 = 0.468 | 962.28 ± 2.1 | 17.72
343.15 K, x1 = 0.602 | 969.87 ± 2.1 | 38.89
343.15 K, x1 = 0.786 | 977.69 ± 2.1 | 91.77
343.15 K, x1 = 0.877 | 980.49 ± 2.1 | 136.74
343.15 K, x1 = 1 | 983.63 ± 2.1 | 316.66
348.15 K, x1 = 0.139 | 923.35 ± 2 | 1.62
348.15 K, x1 = 0.273 | 942.44 ± 2 | 4.47
348.15 K, x1 = 0.361 | 950.85 ± 2 | 7.7
348.15 K, x1 = 0.468 | 959.03 ± 2 | 15.26
348.15 K, x1 = 0.602 | 966.79 ± 2.1 | 32.38
348.15 K, x1 = 0.786 | 974.78 ± 2.1 | 73.67
348.15 K, x1 = 0.877 | 977.62 ± 2.1 | 107.08
348.15 K, x1 = 1 | 980.88 ± 2.1 | 237.14
353.15 K, x1 = 0.139 | 919.35 ± 2 | 1.51
353.15 K, x1 = 0.273 | 938.85 ± 2 | 4.05
353.15 K, x1 = 0.361 | 947.43 ± 2 | 6.85
353.15 K, x1 = 0.468 | 955.78 ± 2 | 13.2
353.15 K, x1 = 0.602 | 963.72 ± 2.1 | 27.28
353.15 K, x1 = 0.786 | 971.87 ± 2.1 | 59.69
353.15 K, x1 = 0.877 | 974.77 ± 2.1 | 85.14
353.15 K, x1 = 1 | 978.13 ± 2.1 | 181.41
